From ChEMBL document CHEMBL4387741, “Optimization of novel reversible Bruton's tyrosine kinase inhibitors identified using Tethering-fragment-based screens” (Bioorg Med Chem, 2019)

Tests used:
[1] = test system: Tyrosine-protein kinase ABL1 (Homo sapiens), P00519 [F317I]; assay: Inhibition of human phosphorylated ABL1 F317I mutant (S229 to K512 residues) expressed in mammalian expression system at 1 uM by Kinomescan method relative to control
[2] = biological target: Tyrosine-protein kinase ABL1 (Homo sapiens) (UniProt P00519); assay: Inhibition of wild-type human non-phosphorylated ABL1 (S229 to K512 residues) expressed in mammalian expression system at 1 uM by Kinomescan method relative to control
[3] = biological target: Peripheral plasma membrane protein CASK (Homo sapiens) (UniProt O14936); assay: Inhibition of wild-type human partial length CASK (M1 to H315 residues) expressed in mammalian expression system at 1 uM by Kinomescan method relative to control
[4] = biological target: Tyrosine-protein kinase CSK (Homo sapiens) (UniProt P41240); assay: Inhibition of wild-type human full length CSK (M1 to L450 residues) expressed in bacterial expression system at 1 uM by Kinomescan method relative to control
Sequence of Tyrosine-protein kinase CSK (Homo sapiens) (P41240 2-450 limits assumed): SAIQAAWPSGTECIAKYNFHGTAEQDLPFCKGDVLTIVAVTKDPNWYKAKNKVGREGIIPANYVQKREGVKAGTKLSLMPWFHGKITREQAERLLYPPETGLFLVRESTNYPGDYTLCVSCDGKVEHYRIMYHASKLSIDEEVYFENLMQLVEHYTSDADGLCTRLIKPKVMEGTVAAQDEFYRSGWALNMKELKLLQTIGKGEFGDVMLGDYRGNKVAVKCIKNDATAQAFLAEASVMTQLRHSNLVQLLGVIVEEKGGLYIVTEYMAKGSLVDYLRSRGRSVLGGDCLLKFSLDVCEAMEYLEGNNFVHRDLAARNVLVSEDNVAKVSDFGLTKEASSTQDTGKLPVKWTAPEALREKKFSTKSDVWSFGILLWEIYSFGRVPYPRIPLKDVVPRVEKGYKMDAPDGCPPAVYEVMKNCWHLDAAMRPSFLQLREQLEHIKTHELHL

[5] = biological target: Glycogen synthase kinase-3 alpha (Homo sapiens) (UniProt P49840); assay: Inhibition of wild-type human full length GSK3A (M1 to S483 residues) expressed in bacterial expression system at 1 uM by Kinomescan method relative to control
[6] = biological target: Mitogen-activated protein kinase kinase kinase kinase 5 (Homo sapiens) (UniProt Q9Y4K4); assay: Inhibition of wild-type human partial length MAP4K5 (M1 to P297 residues) expressed in bacterial expression system at 1 uM by Kinomescan method relative to control
[7] = biological target: MAP kinase-interacting serine/threonine-protein kinase 1 (Homo sapiens) (UniProt Q9BUB5); assay: Inhibition of wild-type human full length MKNK1 (M1 to L424 residues) expressed in mammalian expression system at 1 uM by Kinomescan method relative to control
Sequence of MAP kinase-interacting serine/threonine-protein kinase 1 (Homo sapiens) (Q9BUB5 whole entry, looked up, the tested form may be a part): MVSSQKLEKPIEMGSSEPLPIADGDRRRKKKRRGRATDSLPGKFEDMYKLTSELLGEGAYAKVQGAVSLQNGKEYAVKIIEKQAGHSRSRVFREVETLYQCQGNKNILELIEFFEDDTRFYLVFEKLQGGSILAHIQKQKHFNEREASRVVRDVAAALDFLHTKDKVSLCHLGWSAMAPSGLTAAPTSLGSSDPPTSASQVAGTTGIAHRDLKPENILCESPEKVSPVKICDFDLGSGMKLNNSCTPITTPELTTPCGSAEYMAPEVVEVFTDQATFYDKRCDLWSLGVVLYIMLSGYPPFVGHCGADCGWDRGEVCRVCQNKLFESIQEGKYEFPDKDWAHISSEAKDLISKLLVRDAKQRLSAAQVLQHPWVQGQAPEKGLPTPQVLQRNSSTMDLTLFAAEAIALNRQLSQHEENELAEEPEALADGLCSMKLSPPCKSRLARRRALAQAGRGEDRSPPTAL

[8] = biological target: Serine/threonine-protein kinase Sgk3 (Homo sapiens) (UniProt Q96BR1); assay: Inhibition of wild-type human partial length SGK3 (M119 to L496 residues) expressed in mammalian expression system at 1 uM by Kinomescan method relative to control
Sequence of Serine/threonine-protein kinase Sgk3 (Homo sapiens) (Q96BR1 whole entry, the tested form may be a part): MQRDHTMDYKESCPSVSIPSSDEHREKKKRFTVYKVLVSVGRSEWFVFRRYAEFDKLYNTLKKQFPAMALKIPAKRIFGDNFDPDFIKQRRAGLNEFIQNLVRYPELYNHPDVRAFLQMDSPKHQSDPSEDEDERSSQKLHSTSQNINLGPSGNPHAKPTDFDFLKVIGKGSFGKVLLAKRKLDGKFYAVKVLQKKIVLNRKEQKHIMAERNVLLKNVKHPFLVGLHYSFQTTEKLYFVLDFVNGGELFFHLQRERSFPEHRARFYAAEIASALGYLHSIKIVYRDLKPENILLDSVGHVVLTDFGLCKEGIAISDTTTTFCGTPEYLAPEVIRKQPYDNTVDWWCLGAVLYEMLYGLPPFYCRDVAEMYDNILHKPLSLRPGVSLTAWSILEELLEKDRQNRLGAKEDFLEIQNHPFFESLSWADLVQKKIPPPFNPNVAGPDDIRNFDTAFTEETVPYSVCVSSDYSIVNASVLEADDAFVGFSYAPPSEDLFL

[9] = biological target: Tyrosine-protein kinase Srms (Homo sapiens) (UniProt Q9H3Y6); assay: Inhibition of wild-type human partial length SRMS (L208 to P488 residues) expressed in mammalian expression system at 1 uM by Kinomescan method relative to control
Sequence of Tyrosine-protein kinase Srms (Homo sapiens) (Q9H3Y6 whole entry, the tested form may be a part): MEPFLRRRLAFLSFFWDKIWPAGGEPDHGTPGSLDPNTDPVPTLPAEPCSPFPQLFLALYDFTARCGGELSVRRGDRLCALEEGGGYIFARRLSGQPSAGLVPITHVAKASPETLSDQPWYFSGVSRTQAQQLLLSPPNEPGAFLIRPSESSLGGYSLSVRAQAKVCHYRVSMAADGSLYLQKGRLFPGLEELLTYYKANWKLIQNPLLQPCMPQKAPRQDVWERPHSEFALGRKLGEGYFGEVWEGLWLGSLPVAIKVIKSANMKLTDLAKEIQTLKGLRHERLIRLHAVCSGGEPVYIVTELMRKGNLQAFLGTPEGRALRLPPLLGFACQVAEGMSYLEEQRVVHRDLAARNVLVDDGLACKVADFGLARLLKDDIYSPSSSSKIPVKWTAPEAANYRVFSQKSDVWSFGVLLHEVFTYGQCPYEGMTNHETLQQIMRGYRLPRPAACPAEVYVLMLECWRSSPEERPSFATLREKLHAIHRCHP

[10] = biological target: BDNF/NT-3 growth factors receptor (Homo sapiens) (UniProt Q16620); assay: Inhibition of wild-type human partial length TRKB (Q547 to G838 residues) expressed in mammalian expression system at 1 uM by Kinomescan method relative to control
[11] = biological target: Serine/threonine-protein kinase WNK4 (Homo sapiens) (UniProt Q96J92); assay: Inhibition of wild-type human partial length WNK4 (A31 to D461 residues) expressed in mammalian expression system at 1 uM by Kinomescan method relative to control
[12] = biological target: Mitogen-activated protein kinase kinase kinase 19 (Homo sapiens) (UniProt Q56UN5); assay: Inhibition of wild-type human partial length YSK4 (T1019 to H1328 residues) expressed in mammalian expression system at 1 uM by Kinomescan method relative to control
[13] = biological target: Bone morphogenetic protein receptor type-1A (Homo sapiens) (UniProt P36894); assay: Inhibition of wild-type human partial length BMPR1A (Q214 to I532 residues) expressed in bacterial expression system at 10 uM by Kinomescan method relative to control
[14] = biological target: Bone morphogenetic protein receptor type-2 (Homo sapiens) (UniProt Q13873); assay: Inhibition of wild-type human partial length BMPR2 (R179 to Q526 residues) expressed in mammalian expression system at 10 uM by Kinomescan method relative to control
[15] = biological target: Protein-tyrosine kinase 6 (Homo sapiens) (UniProt Q13882); assay: Inhibition of wild-type human partial length BRK (L166 to T451 residues) expressed in bacterial expression system at 10 uM by Kinomescan method relative to control
[16] = biological target: Epidermal growth factor receptor (Homo sapiens) (UniProt P00533); assay: Inhibition of wild-type human partial length EGFR (R669 to V1011 residues) expressed in bacterial expression system at 10 uM by Kinomescan method relative to control
Sequence of Epidermal growth factor receptor (Homo sapiens) (P00533 whole entry, the tested form may be a part): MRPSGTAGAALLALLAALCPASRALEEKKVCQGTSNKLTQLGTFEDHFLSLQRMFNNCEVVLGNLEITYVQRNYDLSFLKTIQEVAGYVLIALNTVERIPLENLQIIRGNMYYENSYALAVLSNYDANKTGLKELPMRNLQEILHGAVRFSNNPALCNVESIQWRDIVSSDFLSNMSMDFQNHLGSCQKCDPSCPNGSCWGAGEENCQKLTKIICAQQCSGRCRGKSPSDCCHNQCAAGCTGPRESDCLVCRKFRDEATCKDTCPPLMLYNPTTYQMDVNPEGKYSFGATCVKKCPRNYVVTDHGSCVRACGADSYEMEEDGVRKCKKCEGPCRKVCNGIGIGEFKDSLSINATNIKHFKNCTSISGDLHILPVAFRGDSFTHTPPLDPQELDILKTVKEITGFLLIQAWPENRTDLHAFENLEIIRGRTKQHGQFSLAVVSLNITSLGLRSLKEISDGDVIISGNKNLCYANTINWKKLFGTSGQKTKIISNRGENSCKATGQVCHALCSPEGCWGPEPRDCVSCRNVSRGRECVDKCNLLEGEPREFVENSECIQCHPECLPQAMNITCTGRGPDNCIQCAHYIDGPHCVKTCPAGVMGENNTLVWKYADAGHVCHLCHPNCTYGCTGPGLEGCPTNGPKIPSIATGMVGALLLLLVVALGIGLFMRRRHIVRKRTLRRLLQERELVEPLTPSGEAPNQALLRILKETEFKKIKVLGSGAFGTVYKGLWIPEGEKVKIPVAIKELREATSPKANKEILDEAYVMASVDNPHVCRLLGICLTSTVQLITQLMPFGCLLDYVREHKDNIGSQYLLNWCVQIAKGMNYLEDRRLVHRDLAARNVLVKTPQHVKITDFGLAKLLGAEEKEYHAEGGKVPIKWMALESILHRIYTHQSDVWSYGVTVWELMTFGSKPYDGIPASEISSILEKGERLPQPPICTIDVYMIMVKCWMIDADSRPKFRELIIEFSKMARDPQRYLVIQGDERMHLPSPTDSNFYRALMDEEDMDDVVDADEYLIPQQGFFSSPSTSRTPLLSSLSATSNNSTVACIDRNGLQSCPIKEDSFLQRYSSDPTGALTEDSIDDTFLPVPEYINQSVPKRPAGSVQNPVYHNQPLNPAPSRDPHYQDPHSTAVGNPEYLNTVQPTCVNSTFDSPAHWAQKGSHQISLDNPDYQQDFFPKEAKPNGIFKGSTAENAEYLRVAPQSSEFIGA

[17] = biological target: Ephrin type-A receptor 8 (Homo sapiens) (UniProt P29322); assay: Inhibition of wild-type human partial length EPHA8 (Q608 to C920 residues) expressed in bacterial expression system at 10 uM by Kinomescan method relative to control
[18] = test system: Receptor-type tyrosine-protein kinase FLT3 (Homo sapiens), P36888 [K663Q]; assay: Inhibition of human partial length FLT3 K663Q mutant (V592 to Y969 residues) expressed in bacterial expression system at 10 uM by Kinomescan method relative to control
[19] = biological target: Inhibitor of nuclear factor kappa-B kinase subunit alpha (Homo sapiens) (UniProt O15111); assay: Inhibition of wild-type human full length IKK-alpha (M1 to E745 residues) expressed in mammalian expression system at 10 uM by Kinomescan method relative to control
Sequence of Inhibitor of nuclear factor kappa-B kinase subunit alpha (Homo sapiens) (O15111 whole entry, the tested form may be a part): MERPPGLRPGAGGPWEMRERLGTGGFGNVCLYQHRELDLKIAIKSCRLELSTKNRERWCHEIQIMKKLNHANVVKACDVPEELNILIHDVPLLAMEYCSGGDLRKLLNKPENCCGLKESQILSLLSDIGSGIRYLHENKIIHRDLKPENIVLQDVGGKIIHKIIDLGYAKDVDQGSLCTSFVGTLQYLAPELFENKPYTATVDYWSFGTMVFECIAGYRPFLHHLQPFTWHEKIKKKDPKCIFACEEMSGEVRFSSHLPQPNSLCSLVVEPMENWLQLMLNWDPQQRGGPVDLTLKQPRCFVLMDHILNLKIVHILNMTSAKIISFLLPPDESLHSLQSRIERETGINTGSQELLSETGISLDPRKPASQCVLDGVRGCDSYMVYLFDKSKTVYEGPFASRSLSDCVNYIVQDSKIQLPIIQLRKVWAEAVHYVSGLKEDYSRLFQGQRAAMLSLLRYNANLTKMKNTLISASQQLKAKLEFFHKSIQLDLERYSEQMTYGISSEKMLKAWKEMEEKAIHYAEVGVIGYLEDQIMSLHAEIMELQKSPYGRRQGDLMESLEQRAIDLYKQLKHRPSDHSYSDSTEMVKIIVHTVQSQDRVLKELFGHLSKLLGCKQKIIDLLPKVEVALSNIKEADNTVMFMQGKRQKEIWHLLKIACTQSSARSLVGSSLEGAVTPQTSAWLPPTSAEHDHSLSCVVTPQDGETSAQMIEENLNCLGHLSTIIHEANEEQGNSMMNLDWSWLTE

[20] = biological target: Serine/threonine-protein kinase Nek3 (Homo sapiens) (UniProt P51956); assay: Inhibition of wild-type human full length NEK3 (M1 to R506 residues) expressed in mammalian expression system at 10 uM by Kinomescan method relative to control
[21] = biological target: Serine/threonine-protein kinase Nek9 (Homo sapiens) (UniProt Q8TD19); assay: Inhibition of wild-type human partial length NEK9 (P32 to R328 residues) expressed in bacterial expression system at 10 uM by Kinomescan method relative to control
[22] = biological target: Mitogen-activated protein kinase 11 (Homo sapiens) (UniProt Q15759); assay: Inhibition of wild-type human full length p38-beta (M1 to Q364 residues) expressed in bacterial expression system at 10 uM by Kinomescan method relative to control
[23] = biological target: Phosphatidylinositol 5-phosphate 4-kinase type-2 gamma (Homo sapiens) (UniProt Q8TBX8); assay: Inhibition of wild-type human partial length PIP5K2C (M1 to A421 residues) expressed in mammalian expression system at 10 uM by Kinomescan method relative to control
[24] = biological target: Serine/threonine-protein kinase N2 (Homo sapiens) (UniProt Q16513); assay: Inhibition of wild-type human partial length PKN2 (E634 to C984 residues) expressed in bacterial expression system at 10 uM by Kinomescan method relative to control
[25] = biological target: Serine/threonine-protein kinase D1 (Homo sapiens) (UniProt Q15139); assay: Inhibition of wild-type human partial length PRKD1 (G551 to E870 residues) expressed in bacterial expression system at 10 uM by Kinomescan method relative to control
[26] = biological target: Proto-oncogene tyrosine-protein kinase receptor Ret (Homo sapiens) (UniProt P07949); assay: Inhibition of wild-type human partial length RET (E713 to D1014 residues) expressed in bacterial expression system at 10 uM by Kinomescan method relative to control
Sequence of Proto-oncogene tyrosine-protein kinase receptor Ret (Homo sapiens) (P07949 whole entry, the tested form may be a part): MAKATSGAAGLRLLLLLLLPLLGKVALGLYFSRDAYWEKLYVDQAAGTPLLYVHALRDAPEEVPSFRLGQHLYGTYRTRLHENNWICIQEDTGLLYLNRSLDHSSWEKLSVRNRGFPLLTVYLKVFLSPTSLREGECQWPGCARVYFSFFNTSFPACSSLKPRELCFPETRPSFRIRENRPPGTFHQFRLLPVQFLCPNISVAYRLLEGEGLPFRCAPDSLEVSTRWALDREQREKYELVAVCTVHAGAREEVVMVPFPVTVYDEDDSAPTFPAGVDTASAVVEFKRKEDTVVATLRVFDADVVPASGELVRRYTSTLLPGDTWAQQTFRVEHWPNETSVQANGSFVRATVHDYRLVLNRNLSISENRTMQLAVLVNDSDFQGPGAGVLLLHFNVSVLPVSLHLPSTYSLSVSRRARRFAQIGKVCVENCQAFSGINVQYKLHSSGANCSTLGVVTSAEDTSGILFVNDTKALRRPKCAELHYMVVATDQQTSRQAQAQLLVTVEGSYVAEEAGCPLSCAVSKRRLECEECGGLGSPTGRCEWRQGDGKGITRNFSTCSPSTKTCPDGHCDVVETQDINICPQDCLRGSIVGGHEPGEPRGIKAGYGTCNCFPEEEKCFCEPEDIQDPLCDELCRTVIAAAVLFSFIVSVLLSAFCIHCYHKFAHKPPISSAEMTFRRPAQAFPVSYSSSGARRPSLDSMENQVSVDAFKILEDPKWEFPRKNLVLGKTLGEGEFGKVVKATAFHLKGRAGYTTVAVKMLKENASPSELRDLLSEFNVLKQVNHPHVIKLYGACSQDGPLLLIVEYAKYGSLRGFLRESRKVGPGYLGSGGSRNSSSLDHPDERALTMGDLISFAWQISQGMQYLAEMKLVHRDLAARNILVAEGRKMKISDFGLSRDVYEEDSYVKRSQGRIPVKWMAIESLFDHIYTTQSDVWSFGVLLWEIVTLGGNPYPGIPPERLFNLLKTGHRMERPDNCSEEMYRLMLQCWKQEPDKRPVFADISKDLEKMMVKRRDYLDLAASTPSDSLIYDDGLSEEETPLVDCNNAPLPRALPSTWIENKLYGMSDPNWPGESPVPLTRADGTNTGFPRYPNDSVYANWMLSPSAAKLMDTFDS

[27] = biological target: Serine/threonine-protein kinase SIK2 (Homo sapiens) (UniProt Q9H0K1); assay: Inhibition of wild-type human full length SIK2 (M1 to N926 residues) expressed in bacterial expression system at 10 uM by Kinomescan method relative to control

Compound: O=C(Nc1cccc([C@@H]2CN(c3ncnc4[nH]ccc34)CCN2CCO)c1)Nc1c(F)cccc1N1CCCC1
- inhibition [1]: 100%
- inhibition [2]: 61%
- inhibition [3]: 78%
- inhibition [4]: 65%
- inhibition [5]: 100%
- inhibition [6]: 91%
- inhibition [7]: 88%
- inhibition [8]: 84%
- inhibition [9]: 76%
- inhibition [10]: 100%
- inhibition [11]: 96%
- inhibition [12]: 40%

Compound: O=C(Nc1cccc([C@H]2CCCN(c3ncnc4[nH]ccc34)C2)c1)Nc1ccccc1N1CCCC1
- inhibition [13]: 82%
- inhibition [14]: 51%
- inhibition [15]: 100%
- inhibition [16]: 88%
- inhibition [17]: 40%
- inhibition [18]: 8.1%
- inhibition [19]: 27%
- inhibition [20]: 59%
- inhibition [21]: 95%
- inhibition [22]: 100%
- inhibition [23]: 48%
- inhibition [24]: 32%
- inhibition [25]: 100%
- inhibition [26]: 0%
- inhibition [27]: 84%
